Experimental data taken from ChEMBL document CHEMBL1649227, “In vitro antiviral activity of V-073 against polioviruses” (Antimicrob Agents Chemother, 2009).
In brackets after ≈: the same amount, converted by molar mass.

Columns and labels:
Enterovirus C [1] = test: Antiviral activity against Poliovirus PV2-P712 serotype PV2 obtained from immunodeficient chronic excretor infected in […] LLC-MK2 cells assessed as inhibition of viral-replication induced cytopathic effect; type: functional, organism-based
Enterovirus C [2] = test: Antiviral activity against Poliovirus 10668 serotype PV1 obtained from immunodeficient chronic excretor infected in […] LLC-MK2 cells assessed as inhibition of viral-replication induced cytopathic effect; type: functional, organism-based; settings: 10668 serotype PV1, LLC-MK2
Enterovirus C [3] = test: Antiviral activity against Poliovirus 10239 serotype PV1 obtained from circulating vaccine infected in […] LLC-MK2 cells assessed as inhibition of viral-replication induced cytopathic effect; type: functional, organism-based; settings: 10239 serotype PV1, LLC-MK2
Enterovirus C [4] = test: Antiviral activity against Poliovirus 10220 serotype PV2 obtained from circulating vaccine infected in […] LLC-MK2 cells assessed as inhibition of viral-replication induced cytopathic effect; type: functional, organism-based; settings: 10220 serotype PV2, LLC-MK2
Enterovirus C [5] = test: Antiviral activity against Poliovirus 10227 serotype PV2 obtained from immunodeficient chronic excretor infected in […] LLC-MK2 cells assessed as inhibition of viral-replication induced cytopathic effect; type: functional, organism-based; settings: 10227 serotype PV2, LLC-MK2
Enterovirus C [6] = test: Antiviral activity against Poliovirus 10694 serotype PV1 obtained from immunodeficient chronic excretor infected in […] LLC-MK2 cells assessed as inhibition of viral-replication induced cytopathic effect; type: functional, organism-based; settings: 10694 serotype PV1, LLC-MK2
[7] = Cytotoxicity against african green monkey BGMK cells after 18 to 24 hrs by MTT assay; type: cell-based; settings: chlorocebus aethiops
Enterovirus C [8] = test: Antiviral activity against Poliovirus Mahoney serotype PV1 infected in […] LLC-MK2 cells assessed as inhibition of viral-replication induced cytopathic effect; type: functional, organism-based
Enterovirus C [9] = test: Antiviral activity against Poliovirus 10240 serotype PV1 obtained from circulating vaccine infected in […] LLC-MK2 cells assessed as inhibition of viral-replication induced cytopathic effect; type: functional, organism-based; settings: 10240 serotype PV1, LLC-MK2
Enterovirus C [10] = test: Antiviral activity against Poliovirus Saukett serotype PV3 infected in […] LLC-MK2 cells assessed as inhibition of viral-replication induced cytopathic effect; type: functional, organism-based
Enterovirus C [11] = test: Antiviral activity against Poliovirus MEF-1 serotype PV2 infected in […] LLC-MK2 cells assessed as inhibition of viral-replication induced cytopathic effect; type: functional, organism-based; settings: MEF-1 serotype PV2, LLC-MK2
Enterovirus C [12] = test: Antiviral activity against Poliovirus 10231 serotype PV2 obtained from circulating vaccine infected in […] LLC-MK2 cells assessed as inhibition of viral-replication induced cytopathic effect; type: functional, organism-based; settings: 10231 serotype PV2, LLC-MK2
Coxsackievirus B4 = test: Antiviral activity against Coxsackievirus serotype B4 infected in african green monkey BGMK cells assessed as inhibition of virus induced cytopathic effect after 18 to 24 hrs; type: functional, organism-based; settings: Enterovirus B
Enterovirus C [13] = test: Antiviral activity against Poliovirus 10692 serotype PV1 obtained from circulating vaccine infected in […] LLC-MK2 cells assessed as inhibition of viral-replication induced cytopathic effect; type: functional, organism-based; settings: 10692 serotype PV1, LLC-MK2
[14] = Solubility of the compound; type: physicochemical
Enterovirus C [15] = test: Antiviral activity against Poliovirus Brunhilde serotype PV1 infected in […] LLC-MK2 cells assessed as inhibition of viral-replication induced cytopathic effect; type: functional, organism-based
Enterovirus C [16] = test: Antiviral activity against Poliovirus P712 serotype PV2 vaccine-derived infected in […] LLC-MK2 cells assessed as inhibition of viral-replication induced cytopathic effect; type: functional, organism-based
[17] = Selectivity index, ratio of CC50 for human HeLa cells to EC50 for poliovirus; type: toxicity, cell-based; settings: read-out: Ratio CC50/EC50
Enterovirus C [18] = test: Antiviral activity against Poliovirus 10236 serotype PV1 obtained from circulating vaccine infected in […] LLC-MK2 cells assessed as inhibition of viral-replication induced cytopathic effect; type: functional, organism-based; settings: 10236 serotype PV1, LLC-MK2
Human enterovirus 70 = test: Antiviral activity against Enterovirus serotype 70 infected in african green monkey BGMK cells assessed as inhibition of virus induced cytopathic effect after 18 to 24 hrs; type: functional, cell-based, enterovirus D70; settings: Enterovirus D
Enterovirus C [19] = test: Antiviral activity against Poliovirus 10225 serotype PV1 obtained from immunodeficient chronic excretor infected in […] LLC-MK2 cells assessed as inhibition of viral-replication induced cytopathic effect; type: functional, organism-based; settings: 10225 serotype PV1, LLC-MK2
Enterovirus C [20] = test: Antiviral activity against Poliovirus 10232 serotype PV2 obtained from circulating vaccine infected in […] LLC-MK2 cells assessed as inhibition of viral-replication induced cytopathic effect; type: functional, organism-based; settings: 10232 serotype PV2, LLC-MK2
Enterovirus C [21] = test: Antiviral activity against Poliovirus 10234 serotype PV2 obtained from circulating vaccine infected in […] LLC-MK2 cells assessed as inhibition of viral-replication induced cytopathic effect; type: functional, organism-based; settings: 10234 serotype PV2, LLC-MK2
Enterovirus C [22] = test: Antiviral activity against Poliovirus 10224 serotype PV1 obtained from immunodeficient chronic excretor infected in […] LLC-MK2 cells assessed as inhibition of viral-replication induced cytopathic effect; type: functional, organism-based; settings: 10224 serotype PV1, LLC-MK2
Enterovirus C [23] = test: Antiviral activity against Poliovirus 10223 serotype PV1 obtained from immunodeficient chronic excretor infected in […] LLC-MK2 cells assessed as inhibition of viral-replication induced cytopathic effect; type: functional, organism-based; settings: 10223 serotype PV1, LLC-MK2
Enterovirus C [24] = test: Antiviral activity against Poliovirus 10241 serotype PV1 obtained from circulating vaccine infected in […] LLC-MK2 cells assessed as inhibition of viral-replication induced cytopathic effect; type: functional, organism-based; settings: 10241 serotype PV1, LLC-MK2
Enterovirus C [25] = test: Antiviral activity against Poliovirus 10238 serotype PV1 obtained from circulating vaccine infected in […] LLC-MK2 cells assessed as inhibition of viral-replication induced cytopathic effect; type: functional, organism-based; settings: 10238 serotype PV1, LLC-MK2
Enterovirus C [26] = test: Antiviral activity against Poliovirus 10695 serotype PV1 obtained from immunodeficient chronic excretor infected in […] LLC-MK2 cells assessed as inhibition of viral-replication induced cytopathic effect; type: functional, organism-based; settings: 10695 serotype PV1, LLC-MK2
Enterovirus C [27] = test: Antiviral activity against Poliovirus Leon serotype PV3 infected in […] LLC-MK2 cells assessed as inhibition of viral-replication induced cytopathic effect; type: functional, organism-based
Enterovirus C [28] = test: Antiviral activity against Poliovirus 10219 serotype PV2 obtained from circulating vaccine infected in […] LLC-MK2 cells assessed as inhibition of viral-replication induced cytopathic effect; type: functional, organism-based; settings: 10219 serotype PV2, LLC-MK2

Structure (SMILES): COc1ccc(OCc2ccc(COc3c(Cl)cccc3Cl)cc2)c(Cl)c1
- EC50 (Enterovirus C [1]): 16 nM
- EC50 (Enterovirus C [2]): 21 nM
- EC50 (Enterovirus C [3]): 14 nM
- EC50 (Enterovirus C [4]): 10 nM
- EC50 (Enterovirus C [5]): 19 nM
- EC50 (Enterovirus C [6]): 14 nM
- Activity [7]: > 50 µg/mL
- EC50 (Enterovirus C [8]): 76 nM
- EC50 (Enterovirus C [9]): 15 nM
- EC50 (Enterovirus C [10]): 62 nM
- EC50 (Enterovirus C [11]): 26 nM
- EC50 (Enterovirus C [12]): 28 nM
- EC50 (Coxsackievirus B4): 3790 nM
- EC50 (Enterovirus C [13]): 29 nM
- solubility [14]: 14 µM (≈ 5.93 µg/mL)
- EC50 (Enterovirus C [15]): 18 nM
- EC50 (Enterovirus C [16]): 3 nM
- selectivity ratio [17]: 75
- EC50 (Enterovirus C [18]): 29 nM
- MIC90 (Human enterovirus 70): 1.42 µM (≈ 0.602 µg/mL)
- EC50 (Human enterovirus 70; BGMK): 3470 nM
- EC50 (Enterovirus C [19]): 17 nM
- EC50 (Enterovirus C [20]): 19 nM
- EC50 (Enterovirus C [21]): 9 nM
- EC50 (Enterovirus C [22]): 69 nM
- EC50 (Enterovirus C [23]): 10 nM
- EC50 (Enterovirus C [24]): 83 nM
- EC50 (Enterovirus C [25]): 14 nM
- EC50 (Enterovirus C [26]): 8 nM
- EC50 (Enterovirus C [27]): 109 nM
- EC50 (Enterovirus C [28]): 23 nM
